Data as given in ChEMBL document CHEMBL3046265, “Synthesis, evaluation of antimicrobial activity, and molecular modeling of novel 2-((4-(2H-benzo[d] [1,2,3] triazol-2-yl)piperidin-1-yl)methyl)-5-substituted phenyl-1,3,4-oxadiazoles” (2013).

Key:
Assay type in all cases: functional
Details in all cases: read-out: IZ
[1] = tested on: Fusarium oxysporum; test: Antifungal activity against Fusarium oxysporum at 600 ug/ml after 48 hr
[2] = tested on: Enterococcus faecalis; test: Antibacterial activity against Enterococcus faecalis at 600 ug/ml after overnight incubation
[3] = tested on: Enterococcus faecalis; test: Antibacterial activity against Enterococcus faecalis at 900 ug/ml after overnight incubation
[4] = tested on: Streptococcus pyogenes; test: Antibacterial activity against Streptococcus pyogenes at 900 ug/ml after overnight incubation
[5] = tested on: Priestia megaterium; test: Antibacterial activity against Bacillus megaterium at 900 ug/ml after overnight incubation
[6] = tested on: Staphylococcus aureus; test: Antibacterial activity against Staphylococcus aureus at 600 ug/ml after overnight incubation
[7] = tested on: Bacillus pumilus; test: Antibacterial activity against Bacillus pumilus at 900 ug/ml after overnight incubation
[8] = tested on: Fusarium oxysporum; test: Antifungal activity against Fusarium oxysporum at 300 ug/ml after 48 hr
[9] = tested on: Exserohilum rostratum; test: Antifungal activity against Setosphaeria rostrata at 300 ug/ml after 48 hr
[10] = tested on: Klebsiella aerogenes; test: Antibacterial activity against Enterobacter aerogenes at 900 ug/ml after overnight incubation
[11] = tested on: Klebsiella pneumoniae; test: Antibacterial activity against Klebsiella pneumoniae at 900 ug/ml after overnight incubation
[12] = tested on: Proteus vulgaris; test: Antibacterial activity against Proteus vulgaris at 600 ug/ml after overnight incubation
[13] = tested on: Exserohilum rostratum; test: Antifungal activity against Setosphaeria rostrata at 900 ug/ml after 48 hr
[14] = tested on: Klebsiella pneumoniae; test: Antibacterial activity against Klebsiella pneumoniae at 600 ug/ml after overnight incubation
[15] = tested on: Staphylococcus aureus; test: Antibacterial activity against Staphylococcus aureus at 900 ug/ml after overnight incubation
[16] = tested on: Bacillus pumilus; test: Antibacterial activity against Bacillus pumilus at 600 ug/ml after overnight incubation
[17] = tested on: Exserohilum rostratum; test: Antifungal activity against Setosphaeria rostrata at 1200 ug/ml after 48 hr
[18] = tested on: Colletotrichum falcatum; test: Antifungal activity against Glomerella tucumanensis at 300 ug/ml after 48 hr
[19] = tested on: Fusarium oxysporum; test: Antifungal activity against Fusarium oxysporum at 1200 ug/ml after 48 hr
[20] = tested on: Colletotrichum falcatum; test: Antifungal activity against Glomerella tucumanensis at 1200 ug/ml after 48 hr
[21] = tested on: Escherichia coli; test: Antibacterial activity against Escherichia coli at 900 ug/ml after overnight incubation
[22] = tested on: Klebsiella aerogenes; test: Antibacterial activity against Enterobacter aerogenes at 600 ug/ml after overnight incubation
[23] = tested on: Candida albicans; test: Antifungal activity against Candida albicans at 900 ug/ml after 48 hr
[24] = tested on: Bacillus subtilis; test: Antibacterial activity against Bacillus subtilis at 600 ug/ml after overnight incubation
[25] = tested on: Priestia megaterium; test: Antibacterial activity against Bacillus megaterium at 600 ug/ml after overnight incubation
[26] = tested on: Escherichia coli; test: Antibacterial activity against Escherichia coli at 600 ug/ml after overnight incubation
[27] = tested on: Fusarium oxysporum; test: Antifungal activity against Fusarium oxysporum at 900 ug/ml after 48 hr
[28] = tested on: Candida albicans; test: Antifungal activity against Candida albicans at 300 ug/ml after 48 hr
[29] = tested on: Exserohilum rostratum; test: Antifungal activity against Setosphaeria rostrata at 600 ug/ml after 48 hr
[30] = tested on: Candida albicans; test: Antifungal activity against Candida albicans at 600 ug/ml after 48 hr
[31] = tested on: Bacillus subtilis; test: Antibacterial activity against Bacillus subtilis at 900 ug/ml after overnight incubation
[32] = tested on: Colletotrichum falcatum; test: Antifungal activity against Glomerella tucumanensis at 600 ug/ml after 48 hr
[33] = tested on: Colletotrichum falcatum; test: Antifungal activity against Glomerella tucumanensis at 900 ug/ml after 48 hr
[34] = tested on: Streptococcus pyogenes; test: Antibacterial activity against Streptococcus pyogenes at 600 ug/ml after overnight incubation
[35] = tested on: Proteus vulgaris; test: Antibacterial activity against Proteus vulgaris at 900 ug/ml after overnight incubation
[36] = tested on: Candida albicans; test: Antifungal activity against Candida albicans at 1200 ug/ml after 48 hr

| SMILES | zone of inhibition at 600 µg/mL [1] [mm] | zone of inhibition at 600 µg/mL [2] [mm] | zone of inhibition at 900 µg/mL [3] [mm] | zone of inhibition at 900 µg/mL [4] [mm] | zone of inhibition at 900 µg/mL [5] [mm] | zone of inhibition at 300 µg/mL [8] [mm] | zone of inhibition at 300 µg/mL [9] [mm] | zone of inhibition at 900 µg/mL [13] [mm] | zone of inhibition at 1200 µg/mL [17] [mm] | zone of inhibition at 300 µg/mL [18] [mm] | zone of inhibition at 1200 µg/mL [19] [mm] | zone of inhibition at 1200 µg/mL [20] [mm] | zone of inhibition at 900 µg/mL [23] [mm] | zone of inhibition at 900 µg/mL [27] [mm] | zone of inhibition at 300 µg/mL [28] [mm] | zone of inhibition at 600 µg/mL [29] [mm] | zone of inhibition at 600 µg/mL [30] [mm] | zone of inhibition at 600 µg/mL [32] [mm] | zone of inhibition at 900 µg/mL [33] [mm] | zone of inhibition at 1200 µg/mL [36] [mm] | further results |
| --- | --- | --- | --- | --- | --- | --- | --- | --- | --- | --- | --- | --- | --- | --- | --- | --- | --- | --- | --- | --- | --- |
| O=[N+]([O-])c1ccc(-c2nnc(CN3CCC(n4nc5ccccc5n4)CC3)o2)cc1Cl | 8.8 | 4.52 | 7.25 | 7.05 | 12.3 | 4.45 | 2.95 | 11 | 23 | 4.57 | 31.4 | 33.2 | 12.9 | 15.2 | 2.87 | 5.56 | 6.25 | 9.86 | 17.8 | 23.1 | zone of inhibition at 600 µg/mL [6]: 4.89 mm; zone of inhibition at 900 µg/mL [7]: 7.25 mm; zone of inhibition at 900 µg/mL [10]: 12.4 mm; zone of inhibition at 900 µg/mL [11]: 6.25 mm; zone of inhibition at 600 µg/mL [12]: 4.85 mm; zone of inhibition at 600 µg/mL [14]: 3.89 mm; zone of inhibition at 900 µg/mL [15]: 10.2 mm; zone of inhibition at 600 µg/mL [16]: 3.46 mm; zone of inhibition at 900 µg/mL [21]: 9.56 mm; zone of inhibition at 600 µg/mL [22]: 6.28 mm; zone of inhibition at 600 µg/mL [24]: 5.89 mm; zone of inhibition at 600 µg/mL [25]: 5.62 mm; zone of inhibition at 600 µg/mL [26]: 4.82 mm; zone of inhibition at 900 µg/mL [31]: 12 mm; zone of inhibition at 600 µg/mL [34]: 3.35 mm; zone of inhibition at 900 µg/mL [35]: 9.56 mm |
| CCC(C)n1ncn(-c2ccc(N3CCN(c4ccc(OCC5COC(Cn6cncn6)(c6ccc(Cl)cc6Cl)O5)cc4)CC3)cc2)c1=O (stereo not drawn) [ITRACONAZOLE] | 10.8 | – | – | – | – | 4.82 | 3.58 | 14.8 | 29.6 | 4.67 | 39.6 | 33.4 | 12 | 20 | 2.62 | 7.56 | 5.35 | 9.34 | 18.3 | 25.1 | – |
| Cc1ccc(-c2nnc(CN3CCC(n4nc5ccccc5n4)CC3)o2)cc1Br | 7.36 | 3.35 | 5.56 | 5.56 | 9.85 | 4.21 | 3.25 | 9.86 | 17.2 | 4.22 | 26.9 | 25.6 | 9.26 | 13.2 | 3.23 | 5.21 | 5.51 | 7.8 | 14 | 17.8 | zone of inhibition at 600 µg/mL [6]: 5.85 mm; zone of inhibition at 900 µg/mL [7]: 6.56 mm; zone of inhibition at 900 µg/mL [10]: 7.05 mm; zone of inhibition at 900 µg/mL [11]: 12.8 mm; zone of inhibition at 600 µg/mL [12]: 4.85 mm; zone of inhibition at 600 µg/mL [14]: 6.02 mm; zone of inhibition at 900 µg/mL [15]: 11.2 mm; zone of inhibition at 600 µg/mL [16]: 3.32 mm; zone of inhibition at 900 µg/mL [21]: 11.1 mm; zone of inhibition at 600 µg/mL [22]: 3.55 mm; zone of inhibition at 600 µg/mL [24]: 4.25 mm; zone of inhibition at 600 µg/mL [25]: 5.85 mm; zone of inhibition at 600 µg/mL [26]: 6.85 mm; zone of inhibition at 900 µg/mL [31]: 9.05 mm; zone of inhibition at 600 µg/mL [34]: 2.25 mm; zone of inhibition at 900 µg/mL [35]: 10.1 mm |
